From US20250367185A1, “TRANSLESION SYNTHESIS POLYMERASE INHIBITORS AND USES THEREOF” (THE UNIVERSITY OF VERMONT AND STATE AGRICULTURAL COLLEGE, priority 2022, published 2025)

Tested on: HPRT (hypoxanthine phosphoribosyltransferase) gene in A549-ACE2+ cells infected with SARS-COV-2
Assay: HPRT mutagenesis in SARS-COV-2 infected cells
Type: cell-based

## CC(C)CC(=O)c1c(Nc2ccc(C(=O)O)cc2Cl)[nH]c2c(Cl)ccc([N+](=O)[O-])c2c1=O [Compound 1, 3-chloro-4-((8-chloro-3-(3-methylbutanoyl)-5-nitro-4-oxo-1,4-dihydroquinolin-2-yl)amino)benzoic acid]
  SARS-COV-2-dependent HPRT mutagenesis: suppress
